{
  "source": "patent US9358249B2",
  "about": "“Use of Pateamine A for the treatment of age-related muscle wasting” (The Regents of the University of California, priority 2008, dated 2016)",
  "key": {"[1]": {"molecular_target": "T1, eukaryotic initiation factor 4A (eIF4A), yeast (TAP tagged Tif1) (Saccharomyces cerevisiae, UniProt P10081)", "T1 construct": "We performed proteolysis on yeast cell lysates that had been incubated with resveratrol or ethanol; TAP; endogenous in cells; host or cells: yeast cells (lysate); strain expressing TAP-tagged Tif1 for the western blot", "T1 sequence (P10081 1-395)": "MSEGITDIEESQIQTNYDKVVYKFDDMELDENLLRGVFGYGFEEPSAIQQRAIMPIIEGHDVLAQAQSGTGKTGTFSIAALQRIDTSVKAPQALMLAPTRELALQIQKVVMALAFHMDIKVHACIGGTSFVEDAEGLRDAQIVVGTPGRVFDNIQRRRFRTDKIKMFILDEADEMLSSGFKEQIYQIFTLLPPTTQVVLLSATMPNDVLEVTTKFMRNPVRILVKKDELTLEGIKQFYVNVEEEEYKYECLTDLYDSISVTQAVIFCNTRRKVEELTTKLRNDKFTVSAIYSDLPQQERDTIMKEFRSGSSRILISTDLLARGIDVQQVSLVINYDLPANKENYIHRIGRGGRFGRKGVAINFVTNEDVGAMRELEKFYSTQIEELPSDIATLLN", "assay": "Proteolysis protection of yeast cell lysate proteins by resveratrol (silver staining, mass spectrometry, western blotting)", "format": "binding", "description": "(§1) FIGS. 1A-1C illustrate the identification of eIF4A as the molecular target of resveratrol. FIG. 1A: Chemical structure of resveratrol. FIG. 1B: Lysate from untreated yeast cells or Hela cell were incubated with resveratrol or vehicle for 1 hr at room temperature, followed by proteolysis, SDS-PAGE, and silver staining. Mass spectrometry identifies the protected protein is eIF4A. FIG. 1C: Western blotting confirms the protection of yeast (TAP-tagged Tifi) eIF4A by resveratrol.\nWe performed proteolysis on yeast cell lysates that had been incubated with resveratrol or ethanol (vehicle control)."}, "[2]": {"system": "eukaryotic translation (rabbit reticulocyte lysate system)", "assay": "In vitro translation assay, rabbit reticulocyte lysate system, firefly luciferase mRNA", "format": "biochemical", "conditions": "100 μM resveratrol", "description": "The rabbit reticulocyte lysate system was treated with different concentration of resveratrol (0, 1, 10, 50, 100, 500 μM), and the translation of firefly luciferase mRNA was measured with Promega luciferase assay.\nThe in vitor translation assay is performed with the rabbit reticulocyte lysate system. We added different concentrations of resveratrol into the in vitor translation reaction, and used the translation of firefly luciferase mRNA as a readout. […] Translation is reduced by >70% at 100 μM resveratrol, the concentration at which we previously detected eIF4A protection in HeLa cell lysate."}, "human eIF4A": {"molecular_target": "T2, human eIF4A (Homo sapiens, UniProt P60842)", "T2 construct": "endogenous in cells; host or cells: HeLa cell lysate", "T2 sequence (P60842 whole entry)": "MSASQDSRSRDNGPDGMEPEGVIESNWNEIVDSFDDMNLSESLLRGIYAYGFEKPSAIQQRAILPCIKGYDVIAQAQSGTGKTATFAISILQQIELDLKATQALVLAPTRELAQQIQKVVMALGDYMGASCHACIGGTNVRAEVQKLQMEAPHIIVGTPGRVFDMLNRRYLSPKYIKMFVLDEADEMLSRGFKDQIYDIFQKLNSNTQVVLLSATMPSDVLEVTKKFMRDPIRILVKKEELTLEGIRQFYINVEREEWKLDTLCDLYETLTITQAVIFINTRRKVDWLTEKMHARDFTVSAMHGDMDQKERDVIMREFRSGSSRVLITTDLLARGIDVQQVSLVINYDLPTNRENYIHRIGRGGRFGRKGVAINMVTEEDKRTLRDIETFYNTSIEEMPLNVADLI", "assay": "Proteolysis protection in human HeLa cell lysate by resveratrol (western blotting)", "format": "binding", "conditions": "100 μM resveratrol", "description": "as §1"}, "[3]": {"system": "HCV IRES mediated (eIF4A-independent) translation of firefly luciferase", "assay": "Bicistronic dual-luciferase reporter pcDNA/Ren/HCV/FF in HEK 293 cells, firefly luciferase", "format": "cell-based", "conditions": "0-100 μM, 33 hour after transfection", "description": "(§2) FIG. 3A: Schematic diagram of the bicistronic dual-luciferase mRNA Ren-HCV-FF. FIG. 3B: Resveratrol inhibits cap-dependent translation initiation of Renilla luciferase but not eIF4A-independent translation of firefly luciferase. HEK 293 cells transfected with plasmid pcDNA/REN/HCV/FF are treated with different concentration of resveratrol (0, 0.1, 1, 10, 50, 100 μM). Translation of reporter genes was measured 33 hour after transfection using the Dual-Glo luciferase assay (Promega) with an Analyst HT plate reader (Molecular Devices).\n(§3) One such illustrative assay is shown in Example 1."}, "[4]": {"system": "cap-dependent (eIF4A-requiring) translation of renilla luciferase", "assay": "Bicistronic dual-luciferase reporter pcDNA/Ren/HCV/FF in HEK 293 cells, Renilla luciferase", "format": "cell-based", "conditions": "0-100 μM, 33 hour after transfection", "description": "as §2, §3"}},
  "data": [
    {"smiles": "Oc1ccc(C=Cc2cc(O)cc(O)c2)cc1", "note": "[resveratrol]", "values": [
      {"measurement": "eIF4A in protected bands (15 and 25 kDa) after proteolysis, mass spectrometry", "setting": "[1]; yeast cell lysate incubated with resveratrol vs ethanol vehicle", "result": "enriched in the resveratrol-treated sample"},
      {"measurement": "protection of yeast (TAP tagged Tif1) eIF4A, western blotting", "setting": "[1]; yeast lysate, proteolysis", "result": "further confirmed by western blotting"},
      {"measurement": "Translation reduced (firefly luciferase signal)", "setting": "[2]", "result": "> 70", "unit": "%"},
      {"measurement": "protected band after proteolysis, confirmed as human eIF4A by western blotting", "setting": "human eIF4A", "result": "protected band of similar size was detected"},
      {"measurement": "expression of firefly luciferase (HCV IRES)", "setting": "[3]", "result": "unaffected"},
      {"measurement": "expression of renilla luciferase (cap-dependent)", "setting": "[4]", "result": "inhibited in a dose-dependent manner"}
    ]}
  ]
}
